Patent US10406169B2, “Methods of monitoring estriol therapy” (The Regents of the University of California, priority 2015, dated 2019)

Legend:
Assay type in all cases: in vivo, human
[1] = Serum estriol levels in the clinical trial
From the text: Safety assessments, including clinical, blood laboratory safety testing and assessments of estriol levels, occurred at months 0, 3, 6, 12, 18, and 24. On study blood tests included complete blood count (CBC) with differential and platelets; chemistry panel including sodium, potassium, creatinine, BUN, glucose, total protein, albumin, bilirubin (total), alkaline phosphatase, AST (SGOT), and ALT (SGPT), and lipid profile (HDL, LDL and triglycerides, cholesterol. Gynecologic exams were done at month 0, 6, 18 and at month 24 exit, with uterine ultrasounds at months 6, 18 and at month 24 exit. Mammograms were done in screening and at month 24 exit. Adverse event analysis was based on the percentage of patients who discontinued the study and the percentage of patients who discontinued the study possibly due to adverse events.
Free estriol levels were also measured and followed a similar pattern of change within individuals as total levels, with absolute free levels a fraction of the magnitude of the absolute total levels as expected.

[2] = test system: relapsing-remitting multiple sclerosis; experiment: Confirmed relapses (annualized relapse rate, time to first relapse); conditions: for Annualized relapse rate in 12 months, Rate (95% CI) / Annualized relapse rate in 24 months, Rate (95% CI): negative binomial regression
Method: The primary efficacy end point was the annualized relapse rate. A relapse was defined as the appearance of new neurological symptoms or the worsening of pre-existing symptoms, lasting at least 48 hours in a subject who had been neurologically stable or improving in the previous 30 days, accompanied by an objective change in a neurological examination (i.e., a worsening of 0.5 or more points on the EDSS or a worsening by 1.0 or more points on the pyramidal, cerebellar, brainstem or visual functional system scores, not due to fatigue alone and not associated with fever or infection). […] Both treating and examining physicians were unaware of study group assignments. The standard treatment for relapse was a 3-5 day course of glucocorticoids at the discretion of the treating neurologist.
Intention-to-treat analyses were carried out for all end points. […] To control the overall type I error, a sequential testing procedure was applied. […] Consistent with a phase 2 study using a clinical outcome, a p-value<0.10 was considered statistically significant.
For the time to first relapse analysis, Kaplan Meier curves and log-rank test were used to estimate and compare the relapse free probabilities of the two treatment groups. Cox proportional hazards model was used to compare the time to relapse free probabilities between two groups adjusting for covariates. […] The random effect of subject is included in the model to account for within subject correlation.
For the primary endpoint, the main analysis seeks to compare the relapse event rate between treatment groups based on the negative binomial regression. As a sensitivity analysis, recurrent events analysis was performed based on Andersen Gill model to compare the relapse hazard rate between treatment groups.

[3] = test system: relapsing-remitting multiple sclerosis; experiment: Disability and questionnaire outcomes (EDSS, MFIS, BDI, MSQOL); conditions: for Proportion of pts with disability (EDSS) progression at 24 months % (95% CI): Kaplan-Meier
Method: EDSS assessments were performed by physicians who were trained either by in-person training or online (www.Neurostatus.net). […] Tertiary end points included gray matter atrophy on MRI, and changes in results from baseline on questionnaires including the Modified Fatigue Impact Scale, Beck Depression Inventory, and MS Quality of Life. Mixed effects negative binomial regression model and linear mixed effects model were used to compare enhancing lesion volume (log-transformed) between treatment groups at all follow-ups, and mixed effects logistic model was used to compare the number of subjects positive for gadolinium enhancing lesions. Linear mixed effects model was carried out to compare the percent change in whole gray matter and cortical gray matter between treatment groups.

[4] = test system: relapsing-remitting multiple sclerosis; experiment: Gadolinium enhancing lesions on brain MRI; parameters: Enhancing lesion volume, mean ± SD: unit not given here
Method: Mixed effects negative binomial regression model and linear mixed effects model were used to compare enhancing lesion volume (log-transformed) between treatment groups at all follow-ups, and mixed effects logistic model was used to compare the number of subjects positive for gadolinium enhancing lesions. Linear mixed effects model was carried out to compare the percent change in whole gray matter and cortical gray matter between treatment groups. For the exploratory endpoints of EDSS, PASAT, fatigue, depression, quality of life and brain volume measures, linear mixed effects model was used to compare treatment groups at 12 and 24 months.
Dual-echo fast spin echo: TR10000, TE12/95, 50 slices, 1×1×3 mm. Fluid attenuated inversion recovery (FLAIR): TR10380, TE88, TI88, TI2500, 50 slices, 1×1×3 mm. Minor changes were allowed to accommodate different platforms and field strengths at each site. MRI data in Dicom format were fully anonymized prior to transfer and then uploaded to the central MRI reading center database. Prior to study onset, each site provided a dummy scan utilizing the standardized sequences for review by the central MRI reading center to verify scan quality and fidelity. Quality control was maintained at each site using standard procedures for clinical scanners (daily phantoms, stability testing). Quarterly phantoms were collected from 12 of the 15 sites, most using the standard American College of Radiology (ACR) phatom. One site upgraded from a Siemens 1.5T to a 3.0T in November 2013, resulting in the acquisition of one month 24 scan on the new scanner. One site upgraded from a Phillips Achieva 3.0T to a Pillips Intera 3.0T after the first subject completed month 24. All subsequent studies were performed on the Intera.
Analysis of gadolinium enhancing lesions and T2 lesions were performed as described by Sicotte et al. (Ann. Neurology 52:421 (2002)). Briefly, MRI data was coded by study site and randomization number. The number and volume of enhancing lesions were quantified on the post contrast T1 weighted scans by an experienced investigator who was blind to treatment group using a semi-automated threshold-based algorithm. To assess T2 lesions, all FLAIR images were RF corrected, then intensity normalized and registered into a common space defined by the baseline scan for each individual. All subsequent scans were registered to the baseline exam for spatial normalization using a rigid body model. T2 lesion areas were determined using a semi-automated intensity based segmentation procedure by a trained, experienced researcher verified by a single investigator (NLS).

[5] = 24 months, negative = improvement

Substance: glatiramer acetate [Placebo + GA]
- Serum total estriol level, Mean ± SD ([1]; Month 0): 2.1 ± 2.3 ng/mL
- Serum total estriol level, Median ([1]; Month 0): 1.6 ng/mL
- Serum estriol concentrations (in words) ([1]; Month 3): did not exceed the estriol assay detection limit
- Serum total estriol level, Mean ± SD ([1]; Month 3): 2.1 ± 1.6 ng/mL
- Serum total estriol level, Median ([1]; Month 3): 1.8 ng/mL
- Serum total estriol level, Mean ± SD ([1]; Month 6): 1.9 ± 1.4 ng/mL
- Serum total estriol level, Median ([1]; Month 6): 1.8 ng/mL
- Serum total estriol level, Mean ± SD ([1]; Month 12): 2.0 ± 1.4 ng/mL
- Serum total estriol level, Median ([1]; Month 12): 1.8 ng/mL
- Serum total estriol level, Mean ± SD ([1]; Month 18): 1.8 ± 1.2 ng/mL
- Serum total estriol level, Median ([1]; Month 18): 1.8 ng/mL
- Serum total estriol level, Mean ± SD ([1]; Month 24): 1.8 ± 1.1 ng/mL
- Serum total estriol level, Median ([1]; Month 24): 1.6 ng/mL
- Proportion of pts with relapse at 12 months % (95% CI) ([2]; Kaplan-Meier): 33.1 (23.5-45.2) %
- Proportion of pts with relapse at 24 months % (95% CI) ([2]; Kaplan-Meier): 42.9 (32.1-55.5) %
- Annualized relapse rate in 12 months, Rate (95% CI) [2]: 0.48 (0.33-0.69)
- Annualized relapse rate in 24 months, Rate (95% CI) [2]: 0.37 (0.25-0.53)
- Annualized relapse rate in 12 months, Rate (95% CI) ([2]; listed as Placebo+GA): 0.48
- Annualized relapse rate in 24 months, Rate (95% CI) ([2]; listed as Placebo+GA): 0.37
- Beck Depression Inventory (BDI) score median change from baseline [3, 5]: −3.5
- MFIS score median change from baseline [3, 5]: 0
- Proportion of pts with disability (EDSS) progression at 24 months % (95% CI) [3]: 15.8 (8.8-27.6) %
- Proportion of pts with disability (EDSS) progression at 24 months % (95% CI) ([3]; listed as Placebo plus GA): 15.8%
- MSQOL composite scores for Physical outcomes ([3]; change from baseline): no change
- EDSS score reduction from baseline to Month 24, Mean ± SD ([3]; in vivo): 0.05 ± 1.13
- EDSS score reduction from baseline to Month 24, Median ([3]; in vivo): 0.0
- EDSS absolute median change from baseline ([3]; month 24, negative = improvement): 0
- Enhancing lesion volume, mean ± SD ([4]; Baseline): 49.9 ± 121.2
- Enhancing lesion volume, median ([4]; Baseline): 0
- Percentage patients with enhancing lesions % (95% CI) ([4]; Baseline): 29.3 (19.0-39.6) %
- Enhancing lesion volume, mean ± SD ([4]; Month 12): 27.4 ± 147.2
- Enhancing lesion volume, median ([4]; Month 12): 0
- Percentage patients with enhancing lesions % (95% CI) ([4]; Month 12): 21.0 (10.8-31.1) %
- Enhancing lesion volume, mean ± SD ([4]; Month 24): 17.9 ± 71.1
- Enhancing lesion volume, median ([4]; Month 24): 0
- Percentage patients with enhancing lesions % (95% CI) ([4]; Month 24): 14.6 (5.2-23.9) %
- Decrease in enhancing lesion volumes ([4]; month 12 vs baseline): 45%
